Assay results taken from publication PMC8074287, “Analgesic and Anticancer Activity of Benzoxazole Clubbed 2-Pyrrolidinones as Novel Inhibitors of Monoacylglycerol Lipase” (Molecules, 2021).

What was measured:
[1] = test system: A498; assay: NCI60 single-dose SRB assay; type: cell-based, human; details: A498, Renal Cancer, 10 μM
Description: (§1) Compounds 19 and 20 were supplied to National Cancer Institute (USA), for sulforhodamine B (SRB) assay and anticancer screening. Single-dose (10 µM) assay results for compounds 19 and 20 were provided as a mean of percent growth (% G) and growth inhibition (% GI) against 60 cell lines of nine types of cancers and are tabulated in Table 4. […] Both the compounds 19 and 20 were also found active on UO-31 renal cancer cell line with % GI of 21.18 and 29.95, respectively.
(§2) Compounds 19 and 20 were supplied to National Cancer Institute (Bethesda, Maryland, USA), for in vitro sulforhodamine B (SRB) assay, anticancer screening on 60 cell lines of cancers of leukemia, melanoma, and tumors of the kidney, brain, breast, lung, colon, ovary, and prostate, as per their standard protocol. One dose anticancer results (NCI, USA) of compounds 19 and 20 are provided in the Supplementary Materials.

[2] = test system: ACHN; assay: NCI60 single-dose SRB assay; type: cell-based, human; details: Renal Cancer, 10 μM
Description: as §1, §2

[3] = test system: CCRF-CEM; assay: NCI60 single-dose SRB assay; type: cell-based, human; details: Leukemia, 10 μM
Description: as §1, §2

[4] = test system: HL-60(TB); assay: NCI60 single-dose SRB assay; type: cell-based, human; details: Leukemia, 10 μM
Description: as §1, §2

[5] = test system: M14; assay: NCI60 single-dose SRB assay; type: cell-based, human; details: M14, Melanoma, 10 μM
Description: as §1, §2

[6] = test system: MALME-3M; assay: NCI60 single-dose SRB assay; type: cell-based, human; details: Melanoma, 10 μM
Description: as §1, §2

[7] = test system: MCF7; assay: NCI60 single-dose SRB assay; type: cell-based, human; details: MCF7, Breast Cancer, 10 μM
Description: as §1, §2

[8] = test system: MOLT-4; assay: NCI60 single-dose SRB assay; type: cell-based, human; details: MOLT-4, Leukemia, 10 μM
Description: as §1, §2

[9] = test system: NCI-H226; assay: NCI60 single-dose SRB assay; type: cell-based, human; details: NCI-H226, Non-Small Cell Lung Cancer, 10 μM
Description: as §1, §2

[10] = test system: NCI-H322M; assay: NCI60 single-dose SRB assay; type: cell-based, human; details: Non-Small Cell Lung Cancer, 10 μM
Description: as §1, §2

[11] = test system: NCI/ADR-RES; assay: NCI60 single-dose SRB assay; type: cell-based, human; details: Ovarian Cancer, 10 μM
Description: as §1, §2

[12] = test system: OVCAR-4; assay: NCI60 single-dose SRB assay; type: cell-based, human; details: OVCAR-4, Ovarian Cancer, 10 μM
Description: as §1, §2

[13] = test system: OVCAR-5; assay: NCI60 single-dose SRB assay; type: cell-based, human; details: OVCAR-5, Ovarian Cancer, 10 μM
Description: as §1, §2

[14] = test system: PC-3; assay: NCI60 single-dose SRB assay; type: cell-based, human; details: PC-3, Prostate Cancer, 10 μM
Description: as §1, §2

[15] = test system: RPMI-8226; assay: NCI60 single-dose SRB assay; type: cell-based, human; details: RPMI-8226, Leukemia, 10 μM
Description: as §1, §2

[16] = test system: SF-268; assay: NCI60 single-dose SRB assay; type: cell-based, human; details: SF-268, CNS Cancer, 10 μM
Description: as §1, §2

[17] = test system: SF-539; assay: NCI60 single-dose SRB assay; type: cell-based, human; details: SF-539, CNS Cancer, 10 μM
Description: as §1, §2

[18] = test system: SK-OV-3; assay: NCI60 single-dose SRB assay; type: cell-based, human; details: SK-OV-3, Ovarian Cancer, 10 μM
Description: as §1, §2

[19] = test system: SNB-75; assay: NCI60 single-dose SRB assay; type: cell-based, human; details: SNB-75, CNS Cancer, 10 μM
Description: as §1, §2

[20] = test system: SR; assay: NCI60 single-dose SRB assay; type: cell-based, human; details: Leukemia, 10 μM
Description: as §1, §2

[21] = target: T1, hMAGL (Homo sapiens, UniProt Q99685); assay: Human MAGL inhibition assay (Cayman's assay kit)
T1 sequence (Q99685 1-303): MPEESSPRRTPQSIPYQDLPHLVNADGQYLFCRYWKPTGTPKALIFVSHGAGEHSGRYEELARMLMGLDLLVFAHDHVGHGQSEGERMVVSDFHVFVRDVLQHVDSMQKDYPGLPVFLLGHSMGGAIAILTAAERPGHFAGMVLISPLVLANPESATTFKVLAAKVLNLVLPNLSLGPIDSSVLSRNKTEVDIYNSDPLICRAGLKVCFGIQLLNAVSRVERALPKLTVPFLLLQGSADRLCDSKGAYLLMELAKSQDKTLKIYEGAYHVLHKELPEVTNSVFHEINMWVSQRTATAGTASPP

[22] = target: T2, hFAAH (Homo sapiens, UniProt O00519); assay: Human FAAH inhibition assay (Cayman's assay kit); details: IC50, mean ± SEM (n = 3)
T2 sequence (O00519 1-579): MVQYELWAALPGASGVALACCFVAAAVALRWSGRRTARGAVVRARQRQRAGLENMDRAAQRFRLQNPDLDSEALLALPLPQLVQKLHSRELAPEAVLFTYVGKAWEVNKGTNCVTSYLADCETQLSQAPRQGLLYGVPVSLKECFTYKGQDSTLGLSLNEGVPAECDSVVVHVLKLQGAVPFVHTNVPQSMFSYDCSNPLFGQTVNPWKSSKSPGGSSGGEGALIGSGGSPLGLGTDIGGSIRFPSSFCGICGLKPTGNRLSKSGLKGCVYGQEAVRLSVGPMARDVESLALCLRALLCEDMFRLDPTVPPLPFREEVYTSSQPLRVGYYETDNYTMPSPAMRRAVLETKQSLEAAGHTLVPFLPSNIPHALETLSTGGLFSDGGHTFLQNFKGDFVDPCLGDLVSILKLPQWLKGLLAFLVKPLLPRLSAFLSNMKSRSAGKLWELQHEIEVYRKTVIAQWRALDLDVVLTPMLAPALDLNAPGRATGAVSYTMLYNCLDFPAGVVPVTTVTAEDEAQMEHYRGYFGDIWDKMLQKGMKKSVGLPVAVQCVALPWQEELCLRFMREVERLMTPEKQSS

Structure (SMILES): NS(=O)(=O)c1ccc(N2CC(c3nc4ccccc4o3)CC2=O)cc1 (stereo not drawn) [Compound 20, 4-(4-(Benzo[d]oxazol-2-yl)-2-oxopyrrolidin-1-yl)benzenesulfonamide]
- % G [1]: 113.94%
- % GI [1]: −13.94%
- % G [2]: 89.48%
- % GI [2]: 10.52%
- % G [3]: 94.48%
- % GI [3]: 5.52%
- % G [4]: 96.15%
- % GI [4]: 3.85%
- % G [5]: 98.58%
- % GI [5]: 1.42%
- % G [6]: 93.29%
- % GI [6]: 6.71%
- % G [7]: 92.32%
- % GI [7]: 7.68%
- % G [8]: 92.47%
- % GI [8]: 7.53%
- % G [9]: 92.75%
- % GI [9]: 7.25%
- % G [10]: 99.10%
- % GI [10]: 0.90%
- % G [11]: 101.45%
- % GI [11]: −1.45%
- % G [12]: 99.47%
- % GI [12]: 0.53%
- % G [13]: 92.08%
- % GI [13]: 7.92%
- % G [14]: 88.11%
- % GI [14]: 11.89%
- % G [15]: 103.53%
- % GI [15]: −3.53%
- % G [16]: 87.43%
- % GI [16]: 12.57%
- % G [17]: 87.58%
- % GI [17]: 12.42%
- % G [18]: 94.77%
- % GI [18]: 5.23%
- % G [19]: 68.12%
- % GI [19]: 31.88%
- % G [20]: 93.20%
- % GI [20]: 6.80%
- IC50 [21]: 0.0076 ± 0.0008 µM
- IC50 [22]: 68 ± 2.1 µM

Structure (SMILES): O=C1CC(c2nc3ccccc3o2)CN1c1ccc([N+](=O)[O-])cc1 (stereo not drawn) [Compound 19, 4-(Benzo[d]oxazol-2-yl)-1-(4-nitrophenyl)pyrrolidin-2-one]
- % G [1]: 113.46%
- % GI [1]: −13.46%
- % G [2]: 91.70%
- % GI [2]: 8.3%
- % G [3]: 93.58%
- % GI [3]: 6.42%
- % G [4]: 100.09%
- % GI [4]: −0.09%
- % G [5]: 101.37%
- % GI [5]: −1.37%
- % G [6]: 88.53%
- % GI [6]: 11.47%
- % G [7]: 99.19%
- % GI [7]: 0.81%
- % G [8]: 93.64%
- % GI [8]: 6.36%
- % G [9]: 98.63%
- % GI [9]: 1.37%
- % G [10]: 94.18%
- % GI [10]: 5.82%
- % G [11]: 98.37%
- % GI [11]: 1.63%
- % G [12]: 106.27%
- % GI [12]: −6.27%
- % G [13]: 98.30%
- % GI [13]: 1.70%
- % G [14]: 91.14%
- % GI [14]: 8.86%
- % G [15]: 101.28%
- % GI [15]: −1.28%
- % G [16]: 91.85%
- % GI [16]: 8.15%
- % G [17]: 95.59%
- % GI [17]: 4.41%
- % G [18]: 88.34%
- % GI [18]: 11.66%
- % G [19]: 64.51%
- % GI [19]: 35.49%
- % G [20]: 88.92%
- % GI [20]: 11.08%
- IC50 [21]: 0.0084 ± 0.0019 µM
- IC50 [22]: 55 ± 2.7 µM
